US20240209325A1, “CANCER PROPHYLAXIS AND THERAPY USING TARGETED VIRAL NANOPARTICLES” (priority 2021, published 2024)
“Also recorded” adds a separate entry of the source.

Legend:
[1] = Biodistribution of Cy5-labeled CPMV and CCMV particles after i.v. injection (ex vivo IVIS); details: for accumulation/clearance in liver (share of fluorescence signal): Cy5-labeled particles, 200 μg i.v., organs harvested after 24 h; for lung homing (in words): healthy and B16F10 tumor-bearing mice, i.v., 24 h
Description: Healthy and B16F10 metastatic tumor-bearing C57BL/6 female mice were used for biodistribution studies of the Cy5-labeled CPMV and CCMV from Section 2. B16F10 cells (200,000 cells/mouse) were administered i.v. and the tumors were matured for one week. […] After 24 hours, the lungs were harvested and then imaged and quantified for fluorescence using the IVIS (Xenogen).
Both healthy and B16F10 tumor-bearing mice were injected with native and H6/G3-conjugated CPMV and CCMV; to enable tracking the nanoparticles were labeled with Cy5. Lungs and other organs were harvested 24 h following intravenous (i.v.) nanoparticle injection and imaged ex vivo to observe localization of the nanoparticles in the lungs, spleen, kidney, and liver (FIG. 3A).

S100A9 [2] = target: T1, S100A9 (Mus musculus, UniProt P31725); experiment: Confocal imaging of co-localization with S100A9 in tumor-bearing lung sections; format: in vivo, B16F10-inoculated mice
T1 construct: confocal imaging of tumor-bearing lungs sections was performed; from tissue; host or cells: lungs of B16F10-inoculated C57BL/6 mice
T1 sequence (P31725 1-113): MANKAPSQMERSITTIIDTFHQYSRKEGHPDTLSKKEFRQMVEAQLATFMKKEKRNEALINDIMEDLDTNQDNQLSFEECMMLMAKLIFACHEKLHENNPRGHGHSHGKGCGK

B16F10 melanoma cells = experiment: B16F10 i.v. challenge to CPMV and CCMV pre-treated mice (prophylaxis); format: in vivo, C57BL/6J mice
Source text: After 7 days, the mice were challenged by i.v. administration of 200,000 B16F10 melanoma cells per mouse. Lungs were harvested at day 21 (day 14 after tumor inoculation) and fixed in a 10% (v/v) neutral-buffered formalin solution overnight. Following fixation, the lungs were stored in 70% (v/v) ethanol (EtOH), and the number of tumor nodules per lung was manually counted.
After tumor nodule counting, the fixed lung samples were submitted to the La Jolla Institute for Immunology for hematoxylin and eosin (H&E) staining and imaging. Paraffin-embedded blocks were sectioned at 4 μm on a Leica RM2125 RTS microtome. The sections were then floated on a 42° C. tissue flotation bath and mounted onto Fisher Superfrost Plus microscope slides and subjected to H&E staining. Scanning was accomplished using a ZEISS AxioScan Z1 using a 20× objective. The ratio of tumor cells to total cells was measured from the histology slides using QuPath software^68.
To investigate the suitability of S100A9-targeted VNPs to serve as a prophylactic immunotherapy preventing manifestation of lung metastasis, we used a lung metastasis mouse model using C57BL/6J mice i.v. challenged with B16F10 melanoma cells. C57BL/6J mice were pre-exposed to the CPMV (therapeutic) and CCMV (control) nanoparticles with and without the H6/G3 targeting ligands, one week before being challenged i.v. with B16F10 melanoma cells (FIG. 4A). Lungs were harvested 2 weeks post tumor challenge, and tumor nodules were manually counted. […] This experiment was repeated one more time with only the CPMV particles as well as the H6 peptide only control (FIG. 4D).

4T1-Luc cells [3] = experiment: 4T1-Luc i.v. challenge to CPMV pre-treated mice (prophylaxis); format: in vivo, Balb/c mice
Description: After 5 days, the mice were challenged by i.v. injection of 200,000 4T1-Luc cells. The mice were imaged with the IVIS using luminescent imaging every 3 days by injecting intraperitoneally (i.p.) 150 mg/kg of body weight D-luciferin. ROI measurements were taken through the Living Image 3.0 software. The weight of the mice was also tracked every 3 days. After 25 days (20 days after tumor inoculation), the lungs were collected and fixed in Bouin's solution for 3 days. Each tumor nodule on the lungs was counted manually and averaged between the mice in each group.
To determine whether the prophylactic effect of S100A9-targeted CPMV could be replicated in other tumor models, we first exposed Balb/C mice to CPMV and S100A9-targeted CPMV by i.v. injection, and then challenged mice with luciferase-labeled 4T1 (4T1-Luc) cells. This experimental lung metastatic model mimics metastatic triple negative breast cancer (TNBC). Tumor cell challenge was carried out 5 days post CPMV exposure (FIG. 4G). […] By day 21, all the mice in the PBS treatment group had to be sacrificed due to significant weight loss (FIG. 12B). […] The lungs were harvested after 25 days and fixed in Bouin's solution before manual counting of tumor nodules (FIG. 4H, FIG. 4I). […] There was no significant difference between the CPMV and the CPMV-G3.

4T1-Luc cells [4] = experiment: Treatment of 4T1-Luc lung metastasis (immunotherapy); format: in vivo, Balb/c mice; details: 200 μg i.v. 3 days post tumor inoculation
Description: 4T1-luc cells (100,000/mouse) were injected i.v. into female Balb/c mice (n=15). […] Tumor growth was monitored by total bioluminescence imaging based on the i.p. injection of 150 mg/kg of body weight D-luciferin. Total bioluminescence was determined using the Living Image 3.0 software, and ROI were quantified as average counts.
A representative IVIS image on day 9 is shown in FIG. 5E while further imaging can be found in FIG. 13. […] The unabated tumor growth led to the mice in the PBS and CPMV groups all dying within 15 days or reaching their clinical endpoints before being sacrificed (FIG. 13B).

[5] = tested on: RAW-Blue cells: Toll-like receptor (TLR) and NOD stimulation; experiment: RAW-Blue immunogenicity assay (SEAP, QUANTI-Blue); format: cell-based; details: for immunogenicity, activation of NF-κB and AP-1, CPMV compared to CCMV (in words): FIG. 6B, 0.5 μg, 18 hours per method
Description: The immunogenicity of CPMV and CCMV was compared through a RAW-Blue™ assay (Invivogen). Briefly, 100,000 RAW-Blue™ cells/well were incubated with 0.5 μg of CPMV and CCMV, 50 EU mL-1 E. coli endotoxin standard control (ThermoScientific), or culture media for 18 hours. Toll-like receptor (TLR) and nucleotide-binding oligomerization domain (NOD) stimulation was assessed by measuring the levels of secreted embryonic alkaline phosphatase (SEAP) using a QUANTI-Blue™ (Invivogen) assay. Absorbance was measured at 655 nm using a Tecan microplate reader.
The immunogenicity between CPMV and its peptide-conjugated counterparts was also assessed using a RAW-Blue™ assay. […] A QUANTI-Blue™ assay was run like before, and absorbance was measured at 655 nm.

[6] = tested on: innate immune cells in the lungs (DCs, neutrophils, macrophages); experiment: Flow cytometry of innate immune cell profile in lungs; format: in vivo, C57BL/6 mice; details: 200 μg i.v., lungs after 24 h; FACS (FIG. 6C)
Description: Lungs were harvested after 24 hours. Harvested organs were each placed in separate gentle MACS C tubes (Miltenyi Biotec) and dissociated with enzymatic solutions (lung dissociation kits, Miltenyi Biotec). The C tube lid was tightly screwed, inverted, and inserted in a gentleMACS dissociator (Militenyi Biotec). Organs were minced and digested on appropriate gentleMACS programs. After digestion, cells were passed through 40 μm pore size strainers and centrifuged at 500 g for 5 min. The cell pellet was resuspended in 5 mL of 1× RBC lysis solution (eBioscience) and incubated at RT for 2 min, followed by the addition of RPMI-1640 medium to stop lysis. Cells were centrifuged again at 500 g for 5 min and resuspended in PBS with 1% BSA and 2 mM EDTA (FACS solution). Total cell count and viability were found using trypan blue solution (Sigma-Aldrich) and a Countess™ automated cell counter (Invitrogen). Cell concentrations were adjusted to 1.0×10^7 cells/mL.
To reduce background staining of antibodies, 0.25 μg of purified rat anti-mouse CD16/32 (Biolegend) was added to 100 μL cell suspensions before adding to the conjugated antibodies. Cells were incubated at RT for ten minutes prior to immunofluorescence staining. All antibodies for immunofluorescence staining were purchased from Biolegend and diluted in FACS solution according to the manufacturer's recommendation. […]

S100A9 [7] = target: T2, S100A9 (Homo sapiens, UniProt P06702); details: peptides that target or recognize and bind S100A9; screening described in Park et al. 2021; cited from earlier work
T2 sequence (P06702 1-114): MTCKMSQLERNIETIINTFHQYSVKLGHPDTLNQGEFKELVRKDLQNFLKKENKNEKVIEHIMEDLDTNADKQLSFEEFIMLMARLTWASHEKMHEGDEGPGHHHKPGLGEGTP

[8] = target: T3, CPMV-Cy5-PEG (cowpea mosaic virus nanoparticle without targeting peptide) (Cowpea mosaic virus, UniProt P03599 460-833; P03599 834-1022); experiment: confocal imaging of tumor-bearing mouse lung sections after i.v. injection of the particles, S100A9 stained with antibody
T3 sequence 1: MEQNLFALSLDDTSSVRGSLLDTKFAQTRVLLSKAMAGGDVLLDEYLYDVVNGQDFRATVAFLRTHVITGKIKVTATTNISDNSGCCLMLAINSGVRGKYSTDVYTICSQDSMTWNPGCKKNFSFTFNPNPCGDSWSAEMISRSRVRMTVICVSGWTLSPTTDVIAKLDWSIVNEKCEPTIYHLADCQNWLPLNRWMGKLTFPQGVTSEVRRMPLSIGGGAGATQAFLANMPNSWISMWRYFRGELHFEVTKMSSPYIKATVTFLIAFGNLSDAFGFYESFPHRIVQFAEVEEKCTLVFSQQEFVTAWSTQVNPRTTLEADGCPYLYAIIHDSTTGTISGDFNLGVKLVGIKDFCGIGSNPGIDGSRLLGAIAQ
T3 sequence 2: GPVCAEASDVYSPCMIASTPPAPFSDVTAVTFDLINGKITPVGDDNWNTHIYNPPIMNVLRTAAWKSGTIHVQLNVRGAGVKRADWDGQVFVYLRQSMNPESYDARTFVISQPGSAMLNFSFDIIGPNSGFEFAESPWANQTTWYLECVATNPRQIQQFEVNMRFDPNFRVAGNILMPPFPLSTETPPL

**Q.** What does the source list for Cowpea mosaic virus [CPMV]?
**A.** accumulation/clearance in liver (share of fluorescence signal) [1]: 75%; lung homing (in words) [1]: do not home to the lungs; also recorded: did not accumulate in the lungs; association/co-localization with S100A9 (in words) (S100A9 [2]): no association with S100A9; reduction of the ratio of tumor:total cells (B16F10 melanoma cells; H&E lung histology, QuPath (FIG. 4F)): 1.7 fold; decrease of tumor nodules (tumor burden) in the lungs compared to PBS (B16F10 melanoma cells; first study (FIG. 4C), 200 μg i.v. 7 days before challenge, lungs 2 weeks post challenge): 2.1 fold; reduction of tumor nodules compared to PBS (B16F10 melanoma cells; repeated experiment (FIG. 4D)): 1.7 fold; decrease in tumor nodules compared to PBS (4T1-Luc cells [3]; 225 μg i.v. 5 days before challenge, lungs harvested after 25 days): 10.6 fold; tumor growth by luminescent imaging (in words) (4T1-Luc cells [3]; IVIS every 3 days, up to day 21): no signs of tumor growth by day 21; side effects (in words) (4T1-Luc cells [3]; throughout the experiment): no apparent side effects were observed; weight of the mice (in words) (4T1-Luc cells [3]; tracked every 3 days throughout the experiment): stayed fairly consistent; time by which all mice died or reached clinical endpoints (4T1-Luc cells [4]): ≤ 15 days; tumor burden / tumor growth by bioluminescence (in words) (4T1-Luc cells [4]): significant tumor burden; also recorded: unable to slow 4T1-Luc tumor growth; TLR and/or NOD agonism / immunostimulation (in words) ([5]; CPMV, peptide-conjugated CPMV and peptides only, 10 μg, 24 h (FIG. 6A)): strong TLR and/or NOD agonists; immunogenicity, activation of NF-κB and AP-1, CPMV compared to CCMV (in words) [5]: much more immunogenic compared to CCMV; also recorded: higher level of activation; also recorded: immunostimulated by CPMV; immune cell recruitment and activation in the lungs (in words) [6]: did not produce a significant impact

**Q.** What does the source list for cowpea chlorotic mottle virus [CCMV]?
**A.** accumulation/clearance in liver (share of fluorescence signal) [1]: 75%; lung homing (in words) [1]: does not home to the lungs; effect on tumor burden in the lungs (in words) (B16F10 melanoma cells; first study (FIG. 4C), compared to PBS): This effect was not seen; immunogenicity, activation of NF-κB and AP-1, CPMV compared to CCMV (in words) [5]: immunostimulated by CPMV and not CCMV

**Q.** Which Kd (S100A9 [7]) does the source give for “peptide that binds S100A9, ACNSHRHGACGGGS (SEQ ID NO: 12) [MTP5]” here?
**A.** The Kd was 67.6 µM.

**Q.** With “peptide that binds S100A9, ACNSVHQHHCGGGS (SEQ ID NO: 13) [MTP6]” as the molecule, how does the Kd (S100A9 [7]) read?
**A.** The Kd was 39.6 µM.

**Q.** Which Kd (S100A9 [7]) does the source give for “peptide that binds S100A9, ASSHIHHGGGS (SEQ ID NO: 10) [MTP2]” here?
**A.** Its Kd is 77.6 µM.

**Q.** Which Kd (S100A9 [7]) does the source give for “peptide that binds S100A9, HNHMADPGGGS (SEQ ID NO: 11) [MTP3]” here?
**A.** Its Kd is 117 µM.

**Q.** Which KD (S100A9 [7]) does the source give for “scrambled control peptide MDPHAHNGGGS (SEQ ID NO: 16) [reference compound]” here?
**A.** Its KD is “no binding”.

B1: S100A9 (S100 calcium-binding protein A9), endogenous, in lung sections of B16F10 tumor-bearing C57BL/6 mice (other)
chain: ANKAPSQMERSITTIIDTFHQYSRKEGHPDTLSKKEFRQMVEAQLATFMKKEKRNEALINDIMEDLDTNQDNQLSFEECMMLMAKLIFACHEKLHENNPRGHGHSHGKGCGK
notes: also called MRP14; calgranulin B
**Q.** Does B1 bind [8]?
**A.** Result: no binding
